In patent publication US10450549B2, “Aryloxyphenoxypropionate tolerance in turfrgass species and use of AAD1 as a selectable marker” (Dow AgroSciences, LLC, priority 2004, dated 2019):
Several values for one entry are separate records, joined by “and”; a condition that tells them apart may be missing. Equal values may be shown once.

Experiments:
[1] = tested on: homozygous T4 lines of Arabidopsis; assay: 2,4-D injury and AAD1 (v3) expression in homozygous T4 Arabidopsis lines; type: in vivo, Arabidopsis thaliana; details: 800 g ae/ha and above; 14 DAT
Procedure: An experiment was designed to examine if the level of AAD1 (v3) expression in Arabidopsis varies at different growth stages. A high-tolerance, homozygous, AAD1 (v3) T4 line (id=PAAD1.01.345.163) was grown in greenhouse. […] Two leaves, the 3rd leaf from the top and the 5th leaf from the bottom, were harvested from 5 plants, both treated and untreated, and analyzed by ELISA and Western Blotting (as described in Example 11) experiments at 4, 10, 14, 20 and 25 DAT. […] The protein levels accumulated in older plants with some significant protein degradation at the later time points.
These plants also expressed high level of AAD1 (v3), from 0.1 to 0.25% of (FIG. 9B). On the contrary, the low tolerance line expressed less than 0.1% of AAD1 (v3) in TSP and suffered observable injury.

[2] = tested on: AAD1 (v2)-transformed T1 Arabidopsis; assay: T1 Arabidopsis response to postemergence herbicide, % visual injury 2 WAT: native AAD1 (v2) transformants; type: in vivo, Arabidopsis thaliana; details: for % Injury Ave / individuals with 20-40% injury / individuals with <20% injury / individuals with >40% injury: Native AAD1 (v2) gene, 2 WAT
Procedure: Freshly harvested T1 seed (transformed with native [AAD1 (v2)] or plant optimized [AAD1 (v3)] gene) was allowed to dry for 7 days at room temperature. T1 seed was sown in 26.5×51-cm germination trays (T.O. Plastics Inc., Clearwater, Minn.), each receiving a 200 mg aliquots of stratified T1 seed (˜10,000 seed) that had previously been suspended in 40 ml of 0.1% agarose solution and stored at 4° C. for 2 days to complete dormancy requirements and ensure synchronous seed germination.
Sunshine Mix LP5 (Sun Gro Horticulture Inc., Bellevue, Wash.) was covered with fine vermiculite and subirrigated with Hoagland's solution until wet, then allowed to gravity drain. Each 40 ml aliquot of stratified seed was sown evenly onto the vermiculite with a pipette and covered with humidity domes (KORD Products, Bramalea, Ontario, Canada) for 4-5 days. Domes were removed 1 day prior to initial transformant selection using glufosinate postemergence spray (selecting for the co-transformed PAT gene).
Five to six days after planting (DAP) and again 10 DAP, T1 plants (cotyledon and 2-4-1f stage, respectively) were sprayed with a 0.2% solution of Liberty herbicide (200 g ai/L glufosinate, Bayer Crop Sciences, Kansas City, Mo.) at a spray volume of 10 ml/tray (703 L/ha) using a DeVilbiss compressed air spray tip to deliver an effective rate of 280 g ai/ha glufosinate per application. Survivors (plants actively growing) were identified 5-7 days after the final spraying and transplanted individually into 3-inch pots prepared with potting media (Metro Mix 360). Transplanted plants were covered with humidity domes for 3-4 days and placed in a 22° C. growth chamber as before. Domes were subsequently removed and plants moved to the greenhouse (22+5° C., 50+30% RH, 14 h light:10 dark, minimum 500 μE/m^2s^1 natural+supplemental light) at least 1 day prior to testing for the ability of AAD1 (v3) (plant optimized gene) or AAD1 (v2) (native microbial gene) to provide phenoxy auxin herbicide resistance.
Random individual T1 plants selected for glufosinate resistance above were confirmed for expression of the PAT protein using a PAT ELISA kit (Part no. 7000045, Strategic Diagnostics, Inc., Newark, Del.) to non-destructively confirm fidelity of selection process (manufacturer's protocol). Plants were then randomly assigned to various rates of phenoxy herbicides (dichlorprop or 2,4-D). […] Elevated rates were applied in subsequent trials (50, 200, 800, or 3200 g ae/ha).
All auxin herbicide applications were made using the DeVilbiss sprayer as described above to apply 703 L/ha spray volume (0.4 ml solution/3-inch pot) or applied by track sprayer in a 187 L/ha spray volume. […] Dichlorprop used was technical grade (Sigma, St. Louis, Mo.) dissolved in DMSO and diluted in water (<1% DMSO final concentration). As herbicide rates increased beyond 800 g ae/ha, the pH of the spray solution became exceedingly acidic, burning the leaves of young, tender Arabidopsis plants and complicating evaluation of the primary effects of the herbicides. It became standard practice to apply these high rates of phenoxy herbicides in 200 mM Tris buffer (pH 9.0) to a final pH of ˜7-8.
Table 16. […] Response is presented in terms of % visual injury 2 WAT. […] Since each T1 is an independent transformation event, one can expect significant variation of individual T1 responses within a given rate. An arithmetic mean and standard deviation is presented for each treatment. The range in individual response is also indicated in the last column for each rate and transformation. PAT/Cry1F-transformed Arabidopsis served as an auxin-sensitive transformed control. Wildtype Arabidopsis is untransformed.

AAD2 (v1) = AAD2 (v1) (Bradyrhizobium diazoefficiens, UniProt Q89UC4); assay: Colorimetric phenol assay of AAD2 (v1) E. coli extract / partially purified enzyme; type: biochemical, Bradyrhizobium japonicum
[3] = tested on: F1 progeny of ‘Crenshaw’ creeping bentgrass pDAB5042 events; assay: AAD1 whole-plant selectable marker: F1 progeny of Crenshaw pDAB5042 events x elite lines, injury to 240 g ae/ha quizalofop-p-ethyl; type: in vivo
Procedure: The use of AAD1 as a selectable marker for quizalofop selection agent was tested with an “F1” generation of plants that were produced by crossing selected single copy pDAB5042 ‘Crenshaw’ events with non-transgenic elite lines (lines 3425-12, 3427-2, or 3431-1). ‘Crenshaw’ events were vernalized in a growth chamber; elite line crossing partners were field vernalized. Nearing the time of bloom, a non-transgenic plant at the same reproductive stage was moved into the growth chamber in close proximity of the pDAB5042 event. Panicles were secured together with a twist tie, and both panicles were bagged together and labeled. Alternatively, to increase the number of crosses, some panicles were excised and secured to an intact panicle and bagged. At seed harvest, individual seed heads were removed and packaged individually.
Seed were sown on flats containing Metromix™, and germinated in a growth chamber. All emerged seedlings were transplanted into growth medium prepared by mixing Promix® and sand in a 2 to 1 ratio. The medium was contained in plastic pots with a surface area of 84.6 square centimeters (cm^2). Plants were maintained in a greenhouse until established. Leaf tissue from each seedling was harvested for molecular analysis, and tissues were probed for the presence of AAD1. After tissue harvest, the established plants were trimmed to simulate mowing.
The same two plants were the only plants testing positive for one copy of AAD1.

O=C(O)COc1ccc(Cl)cc1Cl [2,4-D, 2,4-dichlorophenoxyacetic acid]
response of control plants [1]: died | T1 plants surviving uninjured (<20% visual injury) ([2]; AAD1 (v2), 200 g ae/ha): 56% | % Injury Ave ([2]; 50 g ae/ha): 14.8% | individuals with 20-40% injury ([2]; 50 g ae/ha): 16 | individuals with <20% injury ([2]; 50 g ae/ha): 55 | individuals with >40% injury ([2]; 50 g ae/ha): 9 | % Injury Ave ([2]; 200 g ae/ha): 34% and 34.1% | individuals with 20-40% injury ([2]; 200 g ae/ha): 11 | individuals with <20% injury ([2]; 200 g ae/ha): 45 | individuals with >40% injury ([2]; 200 g ae/ha): 24 | % Injury Ave ([2]; 800 g ae/ha): 52.5% | individuals with 20-40% injury ([2]; 800 g ae/ha): 32 | individuals with <20% injury ([2]; 800 g ae/ha): 11 | individuals with >40% injury ([2]; 800 g ae/ha): 37 | Vmax (A510 units) (AAD2 (v1); AAD2 (pDAB3202), MOPS pH 6.75): 0.86 A510 units | apparent Vmax, AAD2 (v1) (AAD2 (v1); partially purified enzyme): 0.86 A510 units

CCOC(=O)[C@@H](C)Oc1ccc(Oc2cnc3cc(Cl)ccc3n2)cc1 [quizalofop-p-ethyl]
Visual Injury 39 DAA ([3]; F1 progeny of 3431-1 × pDAB5042 Event 162): 100% | Visual Injury 39 DAA ([3]; F1 progeny of NT6 × pDAB5042 Event 186): 95% | Visual Injury 39 DAA ([3]; individual F1 progeny of 3427-2 × pDAB5042 Event 186): 60% and 80% and 95% (4×) and 90% and 99% (3×) and 85% and 100% (2×) | Visual Injury 39 DAA ([3]; individual F1 progeny of 3431-1 × pDAB5042 Event 127): 90% (4×) and 95% (4×) and 100% (6×) and 99% | Visual Injury 39 DAA ([3]; individual F1 progeny of 3431-1 × pDAB5042 Event 186): 100% (6×) and 99% (10×) and 95% (8×) and 80% (2×) and 90% | Visual Injury 39 DAA ([3]; individual F1 progeny of pDAB5042 Event 127 × 3431-1): 99% (3×) and 95% | Visual Injury 39 DAA ([3]; individual F1 progeny of pDAB5042 Event 144 × 3425-12): 99% and 100% | Visual Injury 39 DAA ([3]; individual F1 progeny of pDAB5042 Event 186 × 3425-12 (asterisk: AAD1 positive)): 0% | Visual Injury 39 DAA ([3]; individual F1 progeny of pDAB5042 Event 186 × 3431-1): 99% (4×) and 100% (2×) and 90% | Visual Injury 39 DAA ([3]; individual progeny of NT6 × 3427-2): 90% and 100% (2×)
